Compared with `Cc1c(Cl)ccc(C(=O)O)c1F`, `Nc1cc(-n2cc(C(=O)O)c(=O)c3ccc(Cl)nc32)c(F)cc1F` is higher in melting point: 198 °C for the first, greater than 270 °C for the second.

First: COC(=O)COc1ccc2cc(-c3cnc(Cc4ccc5ccccc5c4)o3)ccc2c1
Second: Cc1oc(-c2ccccc2)nc1COc1cccc(CON2C(=O)c3ccccc3C2=O)c1
The melting point of the first is higher: 147 to 149 °C for the first, 146 to 147 °C for the second.

Compared with `O=c1[nH]nc2n1-c1ccc(Cl)nc1C(c1ccccc1)=NC2`, `CONc1nc(-c2ccccc2)c2cc(Cl)ccc2n1` is lower in melting point: 222 to 224 °C for the first, 174 °C for the second.

Compared with `COC(=O)c1cc(OC)c(OS(=O)(=O)C(F)(F)F)cc1[N+](=O)[O-]`, `CCOC(=O)C(C#N)(CCCN(C)CCc1cccc(C(=O)OC)c1)c1ccc(OC)c(OC)c1` (centres undefined) is higher in melting point: 69 to 70 °C for the first, 89 to 91 °C for the second.

First: CCCCOCCOc1ccc(-c2ccc(N3CCC(C)C3)c(C=CC(=O)O)c2)cc1 (centres undefined)
Second: Cc1c(CC(N)=O)c2cc(OCCCP(=O)(O)O)ccc2n1Cc1ccccc1
The melting point of the first is lower: 136 to 139 °C for the first, 199 to 203 °C for the second.

Compared with `CCOP(=O)(Cc1ccc(NC(=O)[C@H]2Cc3cc4c(cc3C(=O)[C@H](C)S2)OCO4)cc1)OCC`, `CCCc1ccc(-c2ccc3c(c2)C=C(C(=O)Nc2ccc(CN(C)C4CCOCC4)cc2)CCS3(=O)=O)cc1` is higher in melting point: 181 to 182 °C for the first, 247 to 250 °C for the second.

Compared with `CC(=O)SCC(C)C(=O)N(C(C)C(=O)O)C1CCc2ccccc21` (centres undefined), `CC(=O)SCC(C(=O)NC(C)C(=O)O)C(C)c1ccc(F)cc1` (centres undefined) is lower in melting point: 133 to 137 °C for the first, 93 °C for the second.

Compared with `CCOC(=O)NC(=O)C(c1ccccc1)c1ccccc1`, `CCOC(=O)C(C)Oc1ccc(OCc2ccccc2)c(F)c1` (centres undefined) is lower in melting point: 133 °C for the first, 77 °C for the second.

Compared with `Fc1ccc(CNc2nc(OCC(F)(F)F)nc(-c3ccccc3)n2)cc1`, `CC(C)n1nc(-c2sc(NC(=O)CNCc3ccccc3)nc2-c2ccccc2)ccc1=O` is lower in melting point: 170 to 172 °C for the first, 144 to 145 °C for the second.

First: O=C(O)[C@H](Oc1c(Br)cc(-c2c3ccccc3c(Br)c3sc4ccccc4c23)cc1Br)c1ccccc1
Second: CC(C)CCNC(=O)c1ccccc1-c1ccccc1CNC(=O)c1ccccc1
The melting point of the first is lower: 135 to 137 °C for the first, 147 °C for the second.

Compared with `CCNC(=O)c1ccccc1Nc1nc(Nc2ccc3c(c2)C(C)(C)CNC(=O)C3)ncc1Cl`, `COc1cc(N2CCOCC2)ccc1Nc1nc(Nc2ccc(OC)c3c2N(C)C(=O)CCC3)ncc1Cl` is lower in melting point: 261 to 262 °C for the first, 230 to 232 °C for the second.

First: CCCCc1nc2c(N)nc3cccnc3c2n1CCCOC(C)C
Second: CCCCc1nc(C(C)(C)O)c(C(=O)O)n1Cc1ccc(-c2ccccc2C(=O)OC(C)(C)C)cc1
The melting point of the first is higher: 174 to 175 °C for the first, 158 to 159 °C for the second.

First: COC(=O)C1C=CCn2c(=O)n(CSC(C)=O)c(=O)n21 (centres undefined)
Second: CC(=O)NCc1c(O)cc2c3c(cccc13)C(=O)N(O)C2=O
The melting point of the first is lower: 110 to 111 °C for the first, 268 to 272 °C for the second.

First: Cc1ccc(C)c(Oc2noc(=O)n2S(=O)(=O)N(C)C)c1
Second: COc1ccc2c(CN(C)C)cc(=O)oc2c1
The melting point of the first is higher: 101 to 103 °C for the first, 97 °C for the second.

Compared with `CCCNC(=O)c1ccccc1`, `CCC(Oc1ccccc1Br)C(=O)O` (centres undefined) is higher in melting point: 87.6 to 88.9 °C for the first, 102 °C for the second.

First: CCOC(=O)C1(NS(=O)(=O)c2ccc3c(Cl)cnc(NC(=N)N)c3c2)CCCC1
Second: CCOC(=O)C(=CNc1ncc(OC)c2ccccc12)C(=O)OCC
The melting point of the first is higher: 225 to 226 °C for the first, 150 to 153 °C for the second.

Compared with `Cc1ccc2c(c1)C(=O)N(C)Cc1c(C(N)=NO)ncn1-2`, `CC(C)Oc1c(C(N)=O)n(C)c2ccc(O)cc12` is higher in melting point: 227 to 229 °C for the first, 234 to 237 °C for the second.

First: CNC(=O)Cc1nn(-c2ccccc2)c(=O)c2c1c1c(Br)cccc1n2C
Second: O=c1c2cc(Br)ccc2nc(C(S)c2ncnc3[nH]cnc23)n1-c1ccccc1Cl (centres undefined)
The melting point of the first is higher: 267 to 268 °C for the first, 212 to 242 °C for the second.

Compared with `NS(=O)(=O)c1ncccc1C1=NOCC1`, `CS(=O)(=O)Oc1cccnc1` is lower in melting point: 155 to 156 °C for the first, 56 to 58 °C for the second.

Compared with `O=S(=O)(Nc1cc(Br)nc(Br)c1)c1cccc(C(F)(F)F)c1`, `Cc1ccc(-c2noc(C(F)F)c2-c2ccc(S(N)(=O)=O)cc2)cc1` is higher in melting point: 149 to 151 °C for the first, 169 to 172 °C for the second.

First: CC1(C)C(=O)Nc2ccc(NC(=O)c3ccncc3)cc21
Second: CNC(=O)c1ccc(-c2ccc(NC(=O)NCc3cccnc3)cc2)nc1NCc1ccncc1
The melting point of the first is higher: greater than 300 °C for the first, 218 to 219 °C for the second.

Compared with `Clc1ccc2cc(OC3CCCCO3)ccc2n1` (centres undefined), `COc1ccc2cc(C(=O)[C@H](C)Br)ccc2c1` is lower in melting point: 122 to 124 °C for the first, 90 to 91 °C for the second.

First: O=C(Nc1ccccc1)O[C@@H]1CN=C(c2ccoc2)O[C@H]1c1ccccc1 (racemic)
Second: CC(C)(C)c1ccccc1C(O)(c1ccccc1)c1ncc[nH]1 (centres undefined)
The melting point of the first is lower: 130 °C for the first, 185 to 186 °C for the second.

First: COc1ccc(N(N)Cc2ccc(Cl)cc2)cc1
Second: COc1ccc(-c2sc3cnccc3c2OC(C)=O)cc1
The melting point of the first is lower: 55 °C for the first, 141 to 142 °C for the second.

First: O=C1c2ccc(Cl)cc2C(=O)N1c1ccc([N+](=O)[O-])cc1CI
Second: O=C1c2ccccc2C(=O)N1CCCCC1N=NC(=S)N1 (centres undefined)
The melting point of the first is lower: 183 to 187 °C for the first, 223 to 225 °C for the second.

First: COC(=O)/C=C/c1cc(-c2ccc(S(C)(=O)=O)cc2)n(CC2CCCCC2)n1
Second: CS(=O)(=O)c1cc(C(=O)N=C(N)N)ccc1C1C=CCC1 (centres undefined)
The melting point of the first is lower: 48 to 50 °C for the first, 188 to 190 °C for the second.

First: CC(C)C[C@H](NC(=O)COc1ccc(Cl)cc1)C(=O)N[C@@H](Cc1ccccc1)C(=O)CSCc1ccco1
Second: CCOc1ccc(Nc2nc(NCc3ccco3)nc(Nc3ccc(O)cc3)n2)cc1
The melting point of the first is higher: 116 to 117 °C for the first, 43 to 45 °C for the second.

First: CCOC(=O)CC1=CC2C(CCC3(C)C(O)CCC23)c2ccc(O)cc21 (centres undefined)
Second: CC12CC(CCCCCCl)C3c4ccc(O)cc4CCC3C1CCC2O (centres undefined)
The melting point of the first is higher: 178 °C for the first, 159 °C for the second.

First: Cc1oc2nc3c(c(N)c2c1C)C(=O)CCC3
Second: CCOC(=O)c1cc(=O)c2c(OCC(O)COc3cccc(O)c3C(C)=O)cccc2o1 (centres undefined)
The melting point of the first is higher: 190 to 198 °C for the first, 145 to 148 °C for the second.

First: COC(=O)c1cc(N)cc(C=NO)c1
Second: C=Cc1ccc2c(c1)CCN2C(=O)OC(C)(C)C
The melting point of the first is higher: 160 to 162 °C for the first, 85.5 to 88.6 °C for the second.

Compared with `N#Cc1sc2ncccc2c1Cl`, `N#CC1=CCCc2ccc(Br)cc21` is lower in melting point: 144 to 145 °C for the first, 113 to 115 °C for the second.

First: COc1cccc2cc(C(=O)OCC(C)C)[nH]c12
Second: CC(C)[Si](C(C)C)(C(C)C)C1(CO)c2ccccc2-c2ccccc21
The melting point of the first is lower: 100 to 101 °C for the first, 106 to 108 °C for the second.

First: N#Cc1c(OCC(F)(F)F)nc(CCO)nc1N1CCc2ccccc2CC1
Second: N#Cc1cc(F)c(Sc2nc[nH]n2)cc1F
The melting point of the first is lower: 114 to 116 °C for the first, 185 °C for the second.

Compared with `CCCCc1oc2ccc(NS(C)(=O)=O)cc2c1C(=O)c1ccc(OCCN(CCCC)CCCC)cc1`, `Nc1ncnc2c1ncn2Cc1oc2ccc(Br)cc2c(=O)c1-c1ccccc1F` is higher in melting point: 86 °C for the first, 231 to 233 °C for the second.

First: N#CC1c2ccc(Br)cc2CCC1c1ccc(F)cc1 (centres undefined)
Second: CCC(C#N)C(Br)c1ccc(Br)cc1 (centres undefined)
The melting point of the first is higher: 146 °C for the first, 87 °C for the second.

Compared with `CCc1noc(-c2cn(-c3cccnc3)cn2)n1`, `CCOC(=O)/C=C/c1ccc(Cl)nn1` is lower in melting point: 152 to 153 °C for the first, 106 to 110 °C for the second.

Compared with `CN(C)C(=O)C1=C(C(=O)Nc2ccc(Cl)cc2)CCCC1`, `CC(=CC(=O)O)CCCCCCCCCCCCC(=O)O` is lower in melting point: 125 °C for the first, 77 °C for the second.

From a melting point compilation (Tetko et al.; mined from patent text by program, amines drawn as free bases though some values may be those of a salt)
